Experimental data: PubChem BioAssay AID328 (DTP/NCI, 2004)
Several values for one entry are separate records, joined by “and”; a condition that tells them apart may be missing. Identical values can stand only once. Inconclusive results and toxic doses are left out.

Tested on: BDF1 mice, P388 leukemia ip, median survival T/C
Assay: NCI In Vivo Anticancer Drug Screen. Data for tumor model P388 Leukemia (intraperitoneal) in B6D2F1 (BDF1) mice
Settings: endpoint: median survival time, higher = longer survival
Summary of the method: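 T/C = treated-group survival ÷ vehicle-control survival; tumour transplanted into mice before dosing.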

[1] = dose: 50.0 mg/kg/injection, schedule: Q01DX009 (ip), vehicle: saline with Tween-80
[2] = dose: 100.0 mg/kg/injection, schedule: Q01DX009 (ip), vehicle: saline with Tween-80
[3] = dose: 50.0 mg/kg/injection, schedule: Q01DX009 (ip), vehicle: saline
[4] = dose: 50.0 mg/kg/injection, schedule: Q04DX003 (ip), vehicle: saline
[5] = dose: 6.25 mg/kg/injection, schedule: Q01DX009 (ip), vehicle: saline with Tween-80
[6] = dose: 12.5 mg/kg/injection, schedule: Q01DX009 (ip), vehicle: saline with Tween-80
[7] = dose: 25.0 mg/kg/injection, schedule: Q01DX009 (ip), vehicle: saline with Tween-80

SMILES: CC(C)c1oc(=O)cc2c1[C@@H](O)[C@H]1OC(=O)[C@@]3(C)[C@@H](O)[C@H]4O[C@H]4[C@@]2(C)[C@@H]13
- T/C (dose: 15.0 mg/kg/injection, schedule: Q04DX003 (ip), vehicle: saline with Tween-80): 115 % of control
- T/C (dose: 30.0 mg/kg/injection, schedule: Q01DX001 (ip), vehicle: saline with Tween-80): 104 % of control
- T/C (dose: 30.0 mg/kg/injection, schedule: Q04DX003 (ip), vehicle: saline with Tween-80): 97 % of control

SMILES: COCCn1c2c(nc(C(=O)OC)/c1=N\C(=O)Nc1ccccc1)CCCC2
- T/C [1]: 109 % of control
- T/C [2]: 106 % of control
- T/C (dose: 200.0 mg/kg/injection, schedule: Q01DX009 (ip), vehicle: saline with Tween-80): 106 % of control

SMILES: CCOC(=O)Nc1cc(NC(C)CCCN(CC)CC)c2ncc(-c3cc(OC)c(OC)c(OC)c3)nc2n1 (centres undefined) (tested in a mixture with another compound)
- T/C (dose: 25.0 mg/kg/injection, schedule: Q01DX009 (ip), vehicle: saline): 115 % of control
- T/C [3]: 120 % of control
- T/C [4]: 95 % of control
- T/C (dose: 100.0 mg/kg/injection, schedule: Q04DX003 (ip), vehicle: saline): 109 % of control

SMILES: CN=C1C=C(NC)C(F)(F)C1(F)F
- T/C [5]: 95 % of control
- T/C [6]: 100 % of control
- T/C (dose: 12.5 mg/kg/injection, schedule: Q04DX003 (ip), vehicle: Klucel (hydroxypropylcellulose) (HPC)): 100 % of control
- T/C [7]: 100 % of control
- T/C (dose: 25.0 mg/kg/injection, schedule: Q04DX003 (ip), vehicle: Klucel (hydroxypropylcellulose) (HPC)): 100 % of control

SMILES: CCCCCn1c(C)cc(/C=C\c2ccc3cc(C)ccc3[n+]2C)c1C
- T/C (dose: 0.22 mg/kg/injection, schedule: Q01DX009 (ip), vehicle: saline): 105 % of control and 109 % of control
- T/C (dose: 0.33 mg/kg/injection, schedule: Q01DX009 (ip), vehicle: saline): 95 % of control and 110 % of control
- T/C (dose: 0.5 mg/kg/injection, schedule: Q01DX009 (ip), vehicle: saline): 109 % of control
- T/C (dose: 0.5 mg/kg/injection, schedule: Q04DX003 (ip), vehicle: saline): 118 % of control
- T/C (dose: 0.75 mg/kg/injection, schedule: Q01DX009 (ip), vehicle: saline): 90 % of control
- T/C (dose: 0.88 mg/kg/injection, schedule: Q04DX003 (ip), vehicle: saline): 108 % of control
- T/C (dose: 1.0 mg/kg/injection, schedule: Q04DX003 (ip), vehicle: saline): 120 % of control
- T/C (dose: 1.32 mg/kg/injection, schedule: Q04DX003 (ip), vehicle: saline): 112 % of control
- T/C (dose: 1.5 mg/kg/injection, schedule: Q01DX009 (ip), vehicle: saline): 90 % of control
- T/C (dose: 2.0 mg/kg/injection, schedule: Q04DX003 (ip), vehicle: saline): 104 % of control and 120 % of control
- T/C (dose: 3.0 mg/kg/injection, schedule: Q04DX003 (ip), vehicle: saline): 116 % of control

SMILES: COc1cc(NS(=O)(=O)c2ccccc2)ccc1C
- T/C (dose: 25.0 mg/kg/injection, schedule: Q01DX009 (ip), vehicle: Klucel (hydroxypropylcellulose) (HPC)): 100 % of control
- T/C (dose: 50.0 mg/kg/injection, schedule: Q01DX009 (ip), vehicle: Klucel (hydroxypropylcellulose) (HPC)): 100 % of control
- T/C (dose: 100.0 mg/kg/injection, schedule: Q01DX009 (ip), vehicle: Klucel (hydroxypropylcellulose) (HPC)): 89 % of control and 110 % of control
- T/C (dose: 100.0 mg/kg/injection, schedule: Q04DX003 (ip), vehicle: Klucel (hydroxypropylcellulose) (HPC)): 104 % of control
- T/C (dose: 200.0 mg/kg/injection, schedule: Q04DX003 (ip), vehicle: Klucel (hydroxypropylcellulose) (HPC)): 95 % of control
- T/C (dose: 400.0 mg/kg/injection, schedule: Q04DX003 (ip), vehicle: Klucel (hydroxypropylcellulose) (HPC)): 95 % of control

SMILES: COC12C(COC(N)=O)C3=C(C(=O)C(C)=C(N)C3=O)N1CC1C2N1C (centres undefined)
- T/C (dose: 2.0 mg/kg/injection, schedule: Q01DX009 (ip), vehicle: saline): 163 % of control
- T/C (dose: 2.0 mg/kg/injection, schedule: Q01DX010 (ip), vehicle: saline): 175 % of control
- T/C (dose: 4.0 mg/kg/injection, schedule: Q01DX009 (ip), vehicle: saline): 179 % of control
- T/C (dose: 4.0 mg/kg/injection, schedule: Q01DX010 (ip), vehicle: saline): 190 % of control
- T/C (dose: 8.0 mg/kg/injection, schedule: Q01DX009 (ip), vehicle: saline): 198 % of control
- T/C (dose: 8.0 mg/kg/injection, schedule: Q01DX010 (ip), vehicle: saline): 240 % of control
- T/C (dose: 16.0 mg/kg/injection, schedule: Q01DX009 (ip), vehicle: saline): 88 % of control
- T/C (dose: 16.0 mg/kg/injection, schedule: Q01DX010 (ip), vehicle: saline): 110 % of control

SMILES: O=[N+]([O-])c1ccc(/C=[N+](\[O-])CCO)cc1
- T/C [5]: 101 % of control
- T/C [6]: 101 % of control
- T/C [7]: 100 % of control

SMILES: O=c1oc(-c2ccccc2)nc2cc(Cl)ccc12
- T/C (dose: 50.0 mg/kg/injection, schedule: Q04DX003 (ip), vehicle: saline with Tween-80): 100 % of control and 109 % of control
- T/C (dose: 100.0 mg/kg/injection, schedule: Q04DX003 (ip), vehicle: saline with Tween-80): 100 % of control and 109 % of control
- T/C (dose: 200.0 mg/kg/injection, schedule: Q04DX003 (ip), vehicle: saline with Tween-80): 104 % of control

SMILES: O=C1C=CC(=O)O1 (tested in a mixture with another compound)
- T/C (dose: 0.19 mg/kg/injection, schedule: Q01DX009 (ip), vehicle: Klucel (hydroxypropylcellulose) (HPC)): 100 % of control
- T/C (dose: 0.22 mg/kg/injection, schedule: Q01DX009 (ip), vehicle: Klucel (hydroxypropylcellulose) (HPC)): 95 % of control
- T/C (dose: 0.39 mg/kg/injection, schedule: Q01DX009 (ip), vehicle: Klucel (hydroxypropylcellulose) (HPC)): 118 % of control
- T/C (dose: 0.44 mg/kg/injection, schedule: Q01DX009 (ip), vehicle: Klucel (hydroxypropylcellulose) (HPC)): 90 % of control
- T/C (dose: 0.78 mg/kg/injection, schedule: Q01DX009 (ip), vehicle: Klucel (hydroxypropylcellulose) (HPC)): 90 % of control
- T/C (dose: 0.88 mg/kg/injection, schedule: Q01DX009 (ip), vehicle: Klucel (hydroxypropylcellulose) (HPC)): 95 % of control
- T/C (dose: 1.3 mg/kg/injection, schedule: Q01DX009 (ip), vehicle: Klucel (hydroxypropylcellulose) (HPC)): 109 % of control
- T/C (dose: 1.56 mg/kg/injection, schedule: Q01DX009 (ip), vehicle: other): 95 % of control
- T/C (dose: 2.3 mg/kg/injection, schedule: Q04DX003 (ip), vehicle: Klucel (hydroxypropylcellulose) (HPC)): 91 % of control
- T/C (dose: 3.5 mg/kg/injection, schedule: Q04DX003 (ip), vehicle: Klucel (hydroxypropylcellulose) (HPC)): 116 % of control
- T/C (dose: 5.2 mg/kg/injection, schedule: Q04DX003 (ip), vehicle: Klucel (hydroxypropylcellulose) (HPC)): 100 % of control
- T/C (dose: 5.8 mg/kg/injection, schedule: Q04DX003 (ip), vehicle: Klucel (hydroxypropylcellulose) (HPC)): 100 % of control
- T/C (dose: 6.25 mg/kg/injection, schedule: Q01DX009 (ip), vehicle: saline): 88 % of control
- T/C (dose: 7.2 mg/kg/injection, schedule: Q04DX003 (ip), vehicle: Klucel (hydroxypropylcellulose) (HPC)): 95 % of control
- T/C (dose: 8.8 mg/kg/injection, schedule: Q04DX003 (ip), vehicle: Klucel (hydroxypropylcellulose) (HPC)): 100 % of control
- T/C (dose: 12.5 mg/kg/injection, schedule: Q01DX009 (ip), vehicle: saline): 97 % of control
- T/C (dose: 12.5 mg/kg/injection, schedule: Q04DX003 (ip), vehicle: saline): 104 % of control
- T/C (dose: 13.0 mg/kg/injection, schedule: Q04DX003 (ip), vehicle: Klucel (hydroxypropylcellulose) (HPC)): 104 % of control
- T/C (dose: 25.0 mg/kg/injection, schedule: Q04DX003 (ip), vehicle: saline): 102 % of control
- T/C [3]: 102 % of control and 112 % of control and 113 % of control
- T/C [4]: 115 % of control and 122 % of control and 116 % of control
- T/C (dose: 150.0 mg/kg/injection, schedule: Q04DX003 (ip), vehicle: saline): 122 % of control
- T/C (dose: 200.0 mg/kg/injection, schedule: Q01DX009 (ip), vehicle: saline): 94 % of control [middle of 4 runs]
- T/C (dose: 300.0 mg/kg/injection, schedule: Q01DX009 (ip), vehicle: saline): 100 % of control
- T/C (dose: 300.0 mg/kg/injection, schedule: Q04DX003 (ip), vehicle: saline): 108 % of control and 114 % of control
- T/C (dose: 400.0 mg/kg/injection, schedule: Q04DX003 (ip), vehicle: saline): 121 % of control

SMILES: Cc1cc(C)c2nccc(/C=C/c3ccc(N(C)C)cc3)c2c1
- T/C [1]: 93 % of control
- T/C [2]: 103 % of control

SMILES: O=C1c2ccccc2C(=O)C1C(C[N+](=O)[O-])c1ccccc1 (centres undefined)
- T/C (dose: 25.0 mg/kg/injection, schedule: Q01DX005 (ip), vehicle: saline with Tween-80): 118 % of control
- T/C (dose: 50.0 mg/kg/injection, schedule: Q01DX005 (ip), vehicle: saline with Tween-80): 99 % of control

SMILES: C[C@]12C=CC(=O)C=C1CC[C@@H]1[C@@H]2[C@@H](O)C[C@@]2(C)[C@H]1CC[C@]2(O)C(=O)COC(=O)CCC1CCCC1
- T/C [7]: 113 % of control
- T/C [1]: 109 % of control
- T/C [2]: 95 % of control and 100 % of control
